# Target: T1, E1 and His-E2 Ubch10 (Homo sapiens, UniProt P22314)
# T1 construct: host or cells: E. coli (His-Ubch10); Sf9 insect cells (E1)
# T1 sequence (P22314 1-1058): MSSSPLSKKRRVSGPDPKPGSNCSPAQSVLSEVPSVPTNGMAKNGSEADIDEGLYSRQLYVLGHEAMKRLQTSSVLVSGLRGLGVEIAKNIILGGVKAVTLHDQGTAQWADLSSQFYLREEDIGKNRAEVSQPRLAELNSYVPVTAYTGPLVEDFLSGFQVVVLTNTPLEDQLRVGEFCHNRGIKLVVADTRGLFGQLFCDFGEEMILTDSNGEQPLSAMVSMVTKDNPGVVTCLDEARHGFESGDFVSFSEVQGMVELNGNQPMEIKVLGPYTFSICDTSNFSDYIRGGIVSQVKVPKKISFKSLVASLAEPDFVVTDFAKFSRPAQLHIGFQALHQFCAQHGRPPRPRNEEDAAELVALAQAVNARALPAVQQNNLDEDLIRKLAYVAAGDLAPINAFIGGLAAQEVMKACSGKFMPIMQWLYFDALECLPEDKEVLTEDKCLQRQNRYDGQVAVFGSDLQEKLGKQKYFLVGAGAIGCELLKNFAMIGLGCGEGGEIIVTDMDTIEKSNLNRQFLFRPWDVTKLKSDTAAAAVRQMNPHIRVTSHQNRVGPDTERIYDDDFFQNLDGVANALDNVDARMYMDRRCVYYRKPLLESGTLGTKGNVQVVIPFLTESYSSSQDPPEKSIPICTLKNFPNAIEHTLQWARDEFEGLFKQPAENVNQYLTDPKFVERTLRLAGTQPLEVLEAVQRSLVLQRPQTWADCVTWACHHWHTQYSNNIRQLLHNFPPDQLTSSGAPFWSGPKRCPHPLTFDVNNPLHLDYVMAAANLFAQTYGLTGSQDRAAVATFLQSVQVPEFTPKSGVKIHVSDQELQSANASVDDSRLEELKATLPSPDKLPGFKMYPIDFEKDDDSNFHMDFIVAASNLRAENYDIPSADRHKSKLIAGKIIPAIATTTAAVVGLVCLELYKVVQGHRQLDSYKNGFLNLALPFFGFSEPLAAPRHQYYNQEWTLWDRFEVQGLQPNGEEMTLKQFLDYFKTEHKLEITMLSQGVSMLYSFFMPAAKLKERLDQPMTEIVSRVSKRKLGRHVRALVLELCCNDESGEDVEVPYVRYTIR
# Assay: E1 to E2 transfer assay, His-E2 Ubch10, 1.0 μM ATP (low ATP)
# Type: biochemical
# Settings: Table 5, ATP inhibition properties; inhibition measured using IC50 values
# Description: Biological assays for determining the transfer of ubiquitin from the E1 activating agent to the E2 conjugating agent are described in U.S. patent application Ser. Nos. 09/542,497 and 09/826,312 as well as in the PCT Application WO 01/75145, all of which are incorporated by reference in their entirety. The following assay example illustrates one way by which the ubiquitin ligase inhibitory activity of the compounds of the invention can be assayed. This assay example is not meant to limit in any way the use of the compounds of the invention as ubiquitin ligase inhibitors.
# The attachment of a ubiquitin moiety to the E2 conjugating agent was assayed using Flag-ubiquitin that was purified from E. coli, E2 Ubch10 that was purified as a His-Ubch10 from E. coli, and E1 that was purified from Sf9 insect cells (Affiniti Research Products, Exeter, U.K.). The wells of a Nickel-substrate 96-well plate (Pierce Chemical) were blocked with 100 μl of 1% casein/phosphate buffered saline (PBS) for 1 hour at room temperature. The blocked Nickel-substrate plate was then washed three times with 200 μl of PBST (0.1% Tween-20 in PBS). Subsequently, Flag-ubiquitin reaction solution was added to each well so that the final concentration was 62.5 mM Tris pH 7.5, […], 0.75 mM DTT, 1.0 μM ATP (low ATP), and 100 ng Flag-ubiquitin. The final reaction solution volume was fixed to 80 μl with Millipore-filtered water. To this was added the following: a ubiquitin agent inhibitor in 10 μl of DMSO, 10 μl of E1 and His-E2 Ubch10 in 20 mM Tris buffer, pH 7.5, and 5% glycerol so that there was 10 ng/well of E1 and 20 ng/well of His-E2 Ubch10. The reaction was then allowed to proceed at room temperature for 1 hour.
# After 1 hour, the wells were washed three times with 200 μl of PBST and the amount of E2-ubiquitin complex was measured. For measuring the amount of the E2-ubiquitin complex, 100 μl of Mouse anti-flag diluted 1:10,000 (Sigma Aldrich Fluka Chemicals, St. Louis, Mo.) and anti-mouse HRP diluted 1:15,000 (Jackson Immunoresearch labs, West Grove, Pa.) in PBST were added to each well and allowed to incubate at room temperature for another hour. The wells were then washed three times with 200 μl of PBST and 100 μl of luminol substrate (⅕ dilution) was added. The luminescence of each well was then measured using a […] to calculate the amount of E2-ubiquitin complex. This procedure was repeated using His-E2 Ubch5C instead of His-E2 Ubch10.
# The table below illustrates the inhibitory properties of the pharmaceutical compostions of the invention comprising the compounds listed in the table using the assays described above. Inhibition was measured using IC50 values.
row,SMILES,UBC10
1,"C=C(C)C(=O)Nc1ccc(C(=O)Nc2nc3ccc(OC)cc3s2)cc1 [Compound 15, 4-methacrylamido-N-(6-methoxybenzo[d]thiazol-2-yl)benzamide]",++ (++ indicates inhibition at 50 μM or or less)
2,"COc1ccc2nc(NC(=O)c3ccc(N)cc3)sc2c1 [Compound 16, 4-amino-N-(6-methoxybenzo[d]thiazol-2-yl)benzamide]",++ (++ indicates inhibition at 50 μM or or less)
3,"COc1ccc2nc(NC(=O)c3ccc(NC(C)=O)cc3)sc2c1 [Compound 17, 4-acetamido-N-(6-methoxybenzo[d]thiazol-2-yl)benzamide]",++ (++ indicates inhibition at 50 μM or or less)
4,"COc1ccc2nc(NC(=O)c3ccc([N+](=O)[O-])cc3Cl)sc2c1 [Compound 18, 2-chloro-N-(6-methoxybenzo[d]thiazol-2-yl)-4-nitrobenzamide]",−− (−− indicates marginal or no inhibition detected with this assay)
5,"COc1ccc2nc(NC(=O)c3ccc(NC(=O)C4CCCCC4)cc3)sc2c1 [Compound 19, 4-(cyclohexanecarboxamido)-N-(6-methoxybenzo[d]thiazol-2-yl)benzamide]",++ (++ indicates inhibition at 50 μM or or less)
6,"COc1ccc2nc(NC(=O)c3ccc([N+](=O)[O-])c(C)c3)sc2c1 [Compound 20, N-(6-methoxybenzo[d]thiazol-2-yl)-3-methyl-4-nitrobenzamide]",−− (−− indicates marginal or no inhibition detected with this assay)
7,"COc1ccc2nc(NC(=O)c3ccc(C)cc3)sc2c1 [Compound 21, N-(6-methoxybenzo[d]thiazol-2-yl)-4-methylbenzamide]",++ (++ indicates inhibition at 50 μM or or less)
8,"COc1ccc2nc(NC(=O)c3ccc(C)c([N+](=O)[O-])c3)sc2c1 [Compound 23, N-(6-methoxybenzo[d]thiazol-2-yl)-4-methyl-3-nitrobenzamide]",−− (−− indicates marginal or no inhibition detected with this assay)
9,"COc1ccc2nc(NC(=O)c3ccc([N+](=O)[O-])cc3)sc2c1 [Compound 24, N-(6-methoxybenzo[d]thiazol-2-yl)-4-nitrobenzamide]",++ (++ indicates inhibition at 50 μM or or less)
10,"COc1ccc2nc(NC(=O)c3ccc4ccccc4c3)sc2c1 [Compound 25, N-(6-methoxybenzo[d]thiazol-2-yl)-2-naphthamide]",−− (−− indicates marginal or no inhibition detected with this assay)
11,"COC(=O)c1ccc(C(=O)Nc2nc3ccc(OC)cc3s2)cc1 [Compound 26, methyl 4-((6-methoxybenzo[d]thiazol-2-yl)carbamoyl)benzoate]",++ (++ indicates inhibition at 50 μM or or less)
12,"COc1ccc2nc(NC(=O)c3ccc(OC(C)=O)cc3)sc2c1 [Compound 27, 4-((6-methoxybenzo[d]thiazol-2-yl)carbamoyl)phenyl acetate]",++ (++ indicates inhibition at 50 μM or or less)
13,"COc1ccc2nc(NC(=O)c3ccc(C(C)=O)cc3)sc2c1 [Compound 28, 4-acetyl-N-(6-methoxybenzo[d]thiazol-2-yl)benzamide]",++ (++ indicates inhibition at 50 μM or or less)
14,"COc1ccc2nc(NC(=O)c3ccc4c(c3)OCCO4)sc2c1 [Compound 29, N-(6-methoxybenzo[d]thiazol-2-yl)-2,3-dihydrobenzo[b][1,4]dioxine-6-carboxamide]",++ (++ indicates inhibition at 50 μM or or less)
15,"COc1ccc2nc(NC(=O)c3ccc(Cl)cc3)sc2c1 [Compound 30, 4-chloro-N-(6-methoxybenzo[d]thiazol-2-yl)benzamide]",++ (++ indicates inhibition at 50 μM or or less)
16,"COc1ccc2nc(NC(=O)c3ccc(C#N)cc3)sc2c1 [Compound 31, 4-cyano-N-(6-methoxybenzo[d]thiazol-2-yl)benzamide]",++ (++ indicates inhibition at 50 μM or or less)
17,"COc1ccc2nc(NC(=O)c3ccccc3)sc2c1 [Compound 32, N-(6-methoxybenzo[d]thiazol-2-yl)benzamide]",++ (++ indicates inhibition at 50 μM or or less)
18,"COc1ccc(-c2ccc(C(=O)Nc3nc4ccc(OC)cc4s3)cc2)cc1 [Compound 33, 4′-methoxy-N-(6-methoxy-1,3-benzothiazol-2-yl)biphenyl-4-carboxamide]",++ (++ indicates inhibition at 50 μM or or less)
19,"COc1ccc2nc(NC(=O)c3ccc(S(=O)(=O)N4CCCC4)cc3)sc2c1 [Compound 34, N-(6-methoxybenzo[d]thiazol-2-yl)-4-(pyrrolidin-1-ylsulfonyl)benzamide]",++ (++ indicates inhibition at 50 μM or or less)
20,"COc1ccc2nc(NC(=O)c3ccc(Oc4ccccc4)cc3)sc2c1 [Compound 35, N-(6-methoxybenzo[d]thiazol-2-yl)-4-phenoxybenzamide]",−− (−− indicates marginal or no inhibition detected with this assay)
21,"COc1ccc(C(=O)Nc2nc3ccc(OC)cc3s2)cc1 [Compound 36, 4-methoxy-N-(6-methoxybenzo[d]thiazol-2-yl)benzamide]",++ (++ indicates inhibition at 50 μM or or less)
22,"COc1ccc2nc(NC(=O)C3CCCN3S(=O)(=O)c3ccc(C)cc3)sc2c1 (stereo not shown) [Compound 37, N-(6-methoxybenzo[d]thiazol-2-yl)-1-tosylpyrrolidine-2-carboxamide]",−− (−− indicates marginal or no inhibition detected with this assay)
23,"COc1ccc2nc(NC(=O)C3Cc4ccccc4N3)sc2c1 (stereo not shown) [Compound 38, N-(6-methoxybenzo[d]thiazol-2-yl)indoline-2-carboxamide]",++ (++ indicates inhibition at 50 μM or or less)
24,"COc1ccc2nc(NC(=O)[C@H]3Cc4ccccc4N3)sc2c1 [Compound 39, (R)-N-(6-methoxybenzo[d]thiazol-2-yl)indoline-2-carboxamide]",++ (++ indicates inhibition at 50 μM or or less)
25,"COc1ccc2nc(NC(=O)Cc3cc4ccccc4n3C)sc2c1 [Compound 40, N-(6-methoxybenzo[d]thiazol-2-yl)-2-(1-methyl-1H-indol-2-yl)acetamide]",++ (++ indicates inhibition at 50 μM or or less)
26,"COc1ccc2nc(NC(C)=O)sc2c1 [Compound 41, N-(6-methoxybenzo[d]thiazol-2-yl)acetamide]",++ (++ indicates inhibition at 50 μM or or less)
27,"COc1ccc2nc(NC(=O)C34CC5CC(CC(C5)C3)C4)sc2c1 [Compound 42, N-(6-methoxy-1,3-benzothiazol-2-yl)adamantane-1-carboxamide]",++ (++ indicates inhibition at 50 μM or or less)
28,"COc1ccc2nc(NC(=O)Cc3ccccc3)sc2c1 [Compound 43, N-(6-methoxybenzo[d]thiazol-2-yl)-2-phenylacetamide]",−− (−− indicates marginal or no inhibition detected with this assay)

# Source: patent publication US20080039629A1, “Benzothniazole compositions and their use as ubiquition ligation inhibitors” (RIGEL PHARMACEUTICALS, INC., priority 2003, published 2008)
